Target: T1, α-glycosidase (intestinal α-glycosidase; α-glucosidase)
T1 construct: gene Si; crude native extract: supernatant of sonicated rat intestinal acetone powder in saline (100:1 w/v); not purified, isoenzyme not identified
Assay: colorimetric p-nitrophenyl release, 96-well plate
Format: biochemical
Conditions: 5 mM p-nitrophenyl-α-D-glucopyranoside, 100 mM phosphate, pH 6.8, DMSO, 5 min preincubation; crude rat intestinal extract
Text: colorimetric p-nitrophenyl release, 96-well plate on α-glycosidase (intestinal α-glycosidase; α-glucosidase)

Row | Structure (SMILES) | IC50 [µM]
1 | C[C@H]1O[C@H](O[C@H]2[C@H](O)[C@@H](O)[C@@H](O[C@H]3[C@H](O)[C@@H](O)C(O)O[C@@H]3CO)O[C@@H]2CO)[C@H](O)[C@@H](O)[C@@H]1N[C@H]1C=C(CO)[C@@H](O)[C@H](O)[C@H]1O (stereo partly shown) [acarbose, reference compound] | 841 ± 1.34
2 | O=C1c2c(O)cc(O)cc2O[C@H](c2ccc(O)cc2)[C@H]1O [compound 1, 3,5,7,4′-tetrahydroxy-flavanone] | 183.2 ± 1.22
3 | O=C1C[C@@H](c2ccc(O)cc2)Oc2cc(O)cc(O)c21 [compound 2, naringenin] | 754.2 ± 1.76
4 | COc1cc(O)c2c(c1)OC(c1ccc(O)cc1)C(O)C2=O (stereo not shown) [compound 3, 3,5,4′-trihydroxy,7-methoxy-flavanone] | 790 ± 2.31
5 | COc1cc(O)c2c(c1)O[C@H](c1ccc(O)cc1)CC2=O [compound 4, sakuranetin] | 287.3 ± 2.09
6 | COc1cc(-c2oc3cc(O)c(OC)c(O)c3c(=O)c2O)ccc1O [compound 5, spinacetin] | 826.4 ± 1.87
7 | COc1c(O)cc2oc(-c3ccc(O)c(O)c3)c(O)c(=O)c2c1O [compound 6, patuletin] | 743.1 ± 1.32
